Results as given in paper PMC11547375, “Peptide Dimerization as a Strategy for the Development of Antileishmanial Compounds” (Molecules, 2024).
Like-named read-outs stand apart in the source and are kept apart here. No end group written: not given here.

Columns and labels:
LmCPB2.8ΔCTE (CPB) = LmCPB2.8ΔCTE (CPB) (Leishmania mexicana, UniProt P36400); test: Cysteine protease (CPB) enzyme inhibition assay; type: biochemical
Procedure: The CPB inhibition experiments were performed as described previously by Moreira et al.. The results are expressed as mean ± standard deviation of two independent replicates as the half maximal CPB enzyme inhibitory concentration (IC50-CPB) using Bioestat 5.0 software.

[1] = test system: L. mexicana promastigotes; test: microbe, parasite or virus in culture; type: cell-based, Leishmania mexicana; details: ± standard deviation, SD, read-out: IC50 Promastigote
Procedure: (§1) The L. amazonensis promastigotes (MPRO/BR/1972/M1841-LV-79) were grown in LIT culture medium, while the L. mexicana promastigotes (MNYC/BZ/62/M379) were cultivated in Schneider’s medium (Sigma-Aldrich, St. Louis, MO, USA), supplemented with 10% heat-inactivated fetal bovine serum (FBS; Gibco/Invitrogen, Waltham, MA, USA) at 28 °C until reaching the mid-log phase of growth. Macrophages were sourced from the peritoneal cavity of Swiss mice using the methodology outlined by de Almeida et al.. Anti-promastigote and anti-amastigote assays of L. mexicana and L. amazonensis and their cytotoxic activity were conducted as previously described. IC50 is the concentration capable of killing 50% of the parasites. The drug concentration that inhibited 50% of cell growth was denoted as the 50% cytotoxic concentration (CC50). Cytotoxicity for the host cells and the protozoan species was compared and expressed as the selectivity index (SI), calculated as the ratio of the CC50 for macrophages to the IC50 for the protozoan species.

[2] = test system: L. amazonensis promastigotes; test: microbe, parasite or virus in culture; type: cell-based, Leishmania amazonensis; details: read-out: IC50 Promastigote
Procedure: as §1

peritoneal macrophages = test: Cytotoxicity in peritoneal macrophages; type: cell-based; details: peritoneal macrophages of Swiss mice
Procedure: as §1

[3] = test system: L. amazonensis amastigotes; test: microbe, parasite or virus in culture; type: cell-based, Leishmania amazonensis; details: read-out: IC50 Amastigote
Procedure: (§2) Macrophages were sourced from the peritoneal cavity of Swiss mice using the methodology outlined by de Almeida et al.. Anti-promastigote and anti-amastigote assays of L. mexicana and L. amazonensis and their cytotoxic activity were conducted as previously described. […] Cytotoxicity for the host cells and the protozoan species was compared and expressed as the selectivity index (SI), calculated as the ratio of the CC50 for macrophages to the IC50 for the protozoan species.

L. mexicana amastigotes = test: microbe, parasite or virus in culture; type: cell-based, Leishmania mexicana; details: ± standard deviation, SD
Procedure: as §2

[4] = POPC–POPS–Erg (16:3:1) LUVs
Procedure: To evaluate the effect of monomeric and dimeric peptides on the lipid membrane and relate it to the mechanism of action, vesicle permeabilization studies were carried out for evaluating the possible mechanisms on membrane. The leakage assays were carried out with carboxyfluorescein (CF) internalized in the mimetic membranes. The vesicles of POPC–Chol (4:1) and POPC–POPS (phosphatidylserine)–ergosterol (16:3:1) were employed. These mimetic membranes were designed considering the compositions of phospholipids and steroids in the host membrane and in the Leishmania membrane, respectively. The constitution of the cell membrane of Leishmania varies according to the morphology of the parasite and its stage of development, but is more negative than the cell membranes of mammals, which allow for cationic AMPs to bind more easily. Our studies were based on the membrane of the promastigote form, which is characterized by the presence of mainly phosphatidylcholine, phosphatidylethanolamine, phosphatidylinositol, phosphatidylserine, and ergosterol, in addition to diglycerides and glycolipids containing mannose and galactose. In the amastigote form of Leishmania, there is a higher concentration of fatty acids and cholesterol, while triglycerides and ergosterol decrease during the transition from promastigotes to amastigotes. In addition, the main phospholipids found are sphingomyelin and phosphatidylserine, with lower proportions of phosphatidylinositol and lysophosphatidylethanolamine.
Large unilamellar vesicles (LUVs) composed of POPC (1-palmitoyl-2-oleoyl-sn-glycero-3-phosphatidylcholine) and cholesterol (Chol) (4:1), or POPC, POPS (1-palmitoyl-2-oleoyl-sn-glycero-3-serine), and ergosterol (Erg) (16:3:1) were prepared according to the methods described by Lorenzón et al.. […] We employed a Hitachi U-2000 spectrophotometer (TSHa) (Hitachi, Tokyo, Japan) or a Fluorolog-3 FL3-122 spectrofluorometer (Horiba Jobin Yvon, Glasgow, UK) ((TSHa)2K) for analyses.

[5] = test system: L. amazonensis promastigotes; details: read-out: IC50 Promastigote with active fetal bovine serum, LIT medium with active (not heat-inactivated) fetal bovine serum, ± standard deviation, SD
Procedure: Therefore, stability studies were carried out with these molecules in the presence of the Leishmania parasite in its promastigote form, with active fetal bovine serum added to the culture medium. […] Assays were performed using the TSHa and (TSHa)2K peptides.
Peptide stability was investigated using anti-promastigote assays (as described by Costa et al. 2023 [58]) with L. amazonensis and LIT culture media with fetal bovine serum.

Sequence of LmCPB2.8ΔCTE (CPB) (P36400 126-343, stated change not applied): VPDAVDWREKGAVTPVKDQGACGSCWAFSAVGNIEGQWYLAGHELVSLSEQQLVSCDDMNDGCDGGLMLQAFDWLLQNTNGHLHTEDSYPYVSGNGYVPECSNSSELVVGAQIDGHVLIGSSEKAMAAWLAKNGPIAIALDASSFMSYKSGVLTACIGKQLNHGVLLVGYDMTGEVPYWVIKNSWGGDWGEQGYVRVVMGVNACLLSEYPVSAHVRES

For FLSGIVGMLGKLF-NH2 [TSHa], the “Inhibitory Activity at 20 μmol L^−1” value (LmCPB2.8ΔCTE (CPB); 20 μmol L^−1, mean ± SD of two independent replicates, SD) was 94.22 ± 1.54 %, the inhibition at 20 µM (LmCPB2.8ΔCTE (CPB); 20 μmol L^−1, mean ± SD of two independent replicates, read-out: Inhibitory Activity at 20 μmol L^−1) was over 90% and the IC50 (LmCPB2.8ΔCTE (CPB); mean ± SD of two independent replicates, SD) was 9.2 ± 2.2 µM. The IC50 [1] was 6.3 ± 0.85 µM, the IC50 [2] was 8 ± 0.1 µM and the “CC50 Peritoneal Macrophages” value (peritoneal macrophages; Table 1, ± standard deviation, SD) was over 1000 ± 0.01 µM. For the same substance, the “CC50 Peritoneal Macrophage” value (peritoneal macrophages; Table 2) was over 1000 ± 1.8 µM, the IC50 [3] was 6.8 ± 2.82 µM and the IC50 (L. mexicana amastigotes; 24 h of treatment, read-out: IC50 Amastigote 24 h of Treatment) was 5 ± 0.05 µM. For the same substance, the IC50 (L. mexicana amastigotes; 48 h of treatment, read-out: IC50 Amastigote 48 h of Treatment) was 8.1 ± 0.45 µM, the CF release ([4]; peptide 1 µmol L^−1, fluorescence) was “around 70%” and the CF release ([4]; peptide 5 µmol L^−1, fluorescence) was about 85%. The IC50 [5] was 20 ± 2.15 µM.
